The Ki is a dissociation constant, usually derived from enzyme kinetics or from competition with a known ligand. The melting point is the temperature, or range, at which the solid turns liquid.

Eight compounds from patent US7923561B2 (Hoffmann-La Roche Inc., priority 2006, dated 2011) can be followed below.

Series [1] has as its target T1, recombinant human 5-HT5A receptor (Homo sapiens, UniProt P47898).
T1 construct: expressed in transfected cells; host or cells: HEK-EBNA (Human Embryonic Kidney-EBNA) cells, transient cDNA expression, membranes
In words: [3H]LSD radioligand binding assay, membranes of HEK-EBNA cells transiently expressing 5-HT5A receptors. The settings on record: [3H]LSD approx. 1 nM, SPA beads, 120 min at room temperature; Ki from IC50 by Cheng-Prussoff equation. The method, then: A [^3H]LSD radioligand binding assay was used to determine the affinity of the compounds for the recombinant human 5-HT5A receptor, in membranes from transiently (cDNA) expressed 5-HT5A receptors in Human Embryonic Kidney-EBNA (HEK-EBNA) cells. Assay buffer consisted of Tris (50 mM) buffer containing 1 mM EGTA, 10 mM MgCl2 (pH 7.4) and 10 μM pargyline. The binding assay was carried out in 96-well-plates in the presence of [^3H]LSD (approximately 1 nM), approximately 2 μg/well of membrane protein, and 0.5 mg of Ysi-poly-1-lysine SPA beads in a final volume of 200 μl of buffer. Non-specific binding was defined using methiothepin 2 μM. Compounds were tested at 10 concentrations. All assays were conducted in duplicate and repeated at least two times. Assay plates were incubated for 120 min at room temperature before centrifugation. Bound ligand was determined using a Packard Topcount scintillation counter. IC50 values were calculated using a non-linear curve fitting program and Ki values calculated using the Cheng-Prussoff equation.

T1 sequence (P47898 whole entry): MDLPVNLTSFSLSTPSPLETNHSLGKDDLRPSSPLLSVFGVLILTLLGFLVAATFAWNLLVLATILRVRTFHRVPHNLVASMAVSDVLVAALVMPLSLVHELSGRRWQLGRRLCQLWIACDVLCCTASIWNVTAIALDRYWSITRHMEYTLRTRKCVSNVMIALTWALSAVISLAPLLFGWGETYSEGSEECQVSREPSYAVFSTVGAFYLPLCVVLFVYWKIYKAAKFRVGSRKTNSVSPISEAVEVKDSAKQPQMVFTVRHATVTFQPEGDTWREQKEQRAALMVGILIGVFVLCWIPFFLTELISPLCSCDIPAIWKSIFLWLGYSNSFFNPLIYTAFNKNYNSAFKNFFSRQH

Turning to `ON=C(c1ccccc1)c1cccc2nc(N[C@@H]3CCc4ccccc43)ccc12` [Example 91, [2-((R)-Indan-1-ylamino)-quinolin-5-yl]-phenyl-methanone oxime], the melting point was found to be 175.5 °C. Besides, in series [1], the Ki amounted to 1.55 nM.
The like results for `ON=C(c1ccc(Cl)cc1)c1cccc2nc(N[C@@H]3CCc4ccccc43)ccc12` [Example 92, (4-Chloro-phenyl)-[2-((R)-indan-1-ylamino)-quinolin-5-yl]-methanone oxime] were, in that order, 194 °C and 5.48 nM.
As to `ON=C(c1cccc(F)c1)c1cccc2nc(N[C@@H]3CCc4ccccc43)ccc12` [Example 96, (3-Fluoro-phenyl)-[2-((R)-indan-1-ylamino)-quinolin-5-yl]-methanone oxime], the melting point was 179.5 °C. Moreover, in series [1], the Ki came out at 1.22 nM.
`ON=C(c1cc(F)cc(F)c1)c1cccc2nc(N[C@@H]3CCc4ccccc43)ccc12` [Example 101, (3,5-Difluoro-phenyl)-[2-((R)-indan-1-ylamino)-quinolin-5-yl]-methanone oxime]: the melting point was 120.5 °C. Moreover, the Ki in series [1] is 7.7 nM.
In turn, `O=C(c1cccs1)c1cccc2nc(N[C@@H]3CCc4ccccc43)ccc12` [Example 102, [2-((R)-Indan-1-ylamino)-quinolin-5-yl]-thiophen-2-yl-methanone] showed a melting point of 176 °C. In addition, the Ki in series [1] turned out to be 33.4 nM.
The like results for `O=C(c1ccc(CN2CCOCC2)cc1)c1cccc2nc(N[C@@H]3CCc4ccccc43)ccc12` [Example 103, [2-((R)-Indan-1-ylamino)-quinolin-5-yl]-(4-morpholin-4-ylmethyl-phenyl)-methanone] were, in that order, 160 °C and 678 nM.
`ON=C(c1cccs1)c1cccc2nc(N[C@@H]3CCc4ccccc43)ccc12` [Example 104, [2-((R)-Indan-1-ylamino)-quinolin-5-yl]-thiophen-2-yl-methanone oxime] registered a melting point of 194 °C. Also, in series [1], the inhibition constant (Ki) was found to be 3.64 nM.
The compound `ON=C(c1ccc(CN2CCOCC2)cc1)c1cccc2nc(N[C@@H]3CCc4ccccc43)ccc12` [Example 105, [2-((R)-Indan-1-ylamino)-quinolin-5-yl]-(4-morpholin-4-ylmethyl-phenyl)-methanone oxime] returned a melting point of 167 °C. The Ki in series [1] amounted to 23.2 nM.
